Test results as given in patent US12084458B2, “Substituted pyridines, pyridazines, and pyrimidines as TYK2 inhibitors” (Sudo Biosciences Limited, priority 2021, dated 2024).
Like-named read-outs stand apart in the source and are kept apart here.

How the values were obtained:
[1] = system: HEK-Blue IL-23 cells (IL-23-stimulated STAT3 SEAP reporter; TYK2 JH2); assay: HEK-Blue IL-23 SEAP reporter assay for profiling TYK2 pseudokinase (JH2) inhibition; type: cell-based; conditions: 10 ng/mL human recombinant IL-23, SEAP reporter, read-out: IL23 (TYK2 inhibitory activity, IC50)
In short: (§1)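 STAT-inducible SEAP read-out: IFNα/β cells got 1 ng/mL IFNα for 16-18 h and IL-23 cells got 10 ng/mL IL-23 for 22-24 hours. In both cases the cytokine followed a 60 min preincubation with titrated test compound.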

[2] = system: HEK-Blue IFNα/β cells (IFNα-stimulated STAT1 SEAP reporter; TYK2 JH2); assay: HEK-Blue IFNα/β SEAP reporter assay for profiling TYK2 pseudokinase (JH2) inhibition; type: cell-based; conditions: 1 ng/mL human recombinant IFNα, read-out: IFNα (TYK2 inhibitory activity, IC50)
In short: as §1

TYK2 kinase domain (JH1) = target: T1, TYK2 kinase domain (JH1) (Homo sapiens, UniProt P29597); assay: HTRF-based selectivity assay, TYK2 catalytic domain; type: biochemical; conditions: recombinant catalytic domain, ATP 20 μM
T1 construct: recombinant purified His or GST-tagged catalytic domain for each enzyme; made in house
T1 sequence (P29597 897-1176 limits assumed): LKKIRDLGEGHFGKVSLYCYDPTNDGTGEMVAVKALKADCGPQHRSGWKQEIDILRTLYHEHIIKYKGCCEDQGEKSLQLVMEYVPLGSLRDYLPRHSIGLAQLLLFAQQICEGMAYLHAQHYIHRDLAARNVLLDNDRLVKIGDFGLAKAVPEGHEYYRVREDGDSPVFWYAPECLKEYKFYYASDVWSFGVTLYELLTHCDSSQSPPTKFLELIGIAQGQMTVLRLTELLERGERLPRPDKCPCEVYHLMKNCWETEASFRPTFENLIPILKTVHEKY
Procedure: (§2) Example B-2: HTRF-Based Selectivity Assay
(§3) The ability of compounds to inhibit the activity of JAK1, JAK2, JAK3 and TYK2 is measured using a recombinant purified His or GST-tagged catalytic domain for each enzyme (JAK1, JAK2 and TYK2 are generated in-house; JAK3 was purchased from Carna biosciences, Cat #08-046) in an HTRF format biochemical assay. The reactions employs a commercial peptide substrate from Cisbio (Cat #62TK0PEC). The basic assay protocol is as follows: first, 2.5 μL of diluted compounds (4×) in DMSO are dispensed into a 384-well Optiplate. Next, 2.5 μL of enzyme (final concentrations for enzymes are: TYK2—700 ng/mL, JAK1—80.6 ng/mL, JAK2—2.1 ng/mL and JAK3—171.8 ng/mL) is added and incubated at RT for 5-20 min. Finally, 5 μl of mixture of 2× ATP [Final concentration 20 μM for TYK2, 21.43 μM for JAK1, 14.7 μM for JAK2 and 2.12 μM for JAK3]+2× Substrate [Final concentration 217 nM for TYK2, 454.7 nM for JAK1, 200 nM for JAK2 and 257.4 nM for JAK3] is added to 384 well Optiplate. Composition of Kinase assay buffer used in the assay is as follows: HEPES 50 mM, EGTA 1 mM, MgCl2 10 mM, DTT 2 mM, Tween-20 0.01% and water. Then the plates are shaken and then incubated at 26.5° C. for 60 min.

JAK1 kinase domain (JH1) = target: T2, JAK1 kinase domain (JH1) (Homo sapiens, UniProt P23458); assay: HTRF-based selectivity assay, JAK1 catalytic domain; type: biochemical; conditions: recombinant catalytic domain, ATP 21.43 μM
T2 construct: recombinant purified His or GST-tagged catalytic domain for each enzyme; made in house
T2 sequence (P23458 875-1153 limits assumed): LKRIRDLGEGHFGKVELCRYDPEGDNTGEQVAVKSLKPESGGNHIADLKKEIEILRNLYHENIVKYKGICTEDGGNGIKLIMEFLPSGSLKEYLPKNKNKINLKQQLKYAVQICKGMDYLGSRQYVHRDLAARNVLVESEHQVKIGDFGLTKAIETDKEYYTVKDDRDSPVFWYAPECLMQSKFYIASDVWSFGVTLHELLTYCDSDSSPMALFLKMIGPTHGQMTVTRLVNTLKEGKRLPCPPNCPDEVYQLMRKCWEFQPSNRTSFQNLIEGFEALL
Procedure: as §2, §3

[3] = system: HEK-Blue IFNγ reporter cells (IFNγ-stimulated STAT1 SEAP reporter); assay: HEK-Blue IFNγ SEAP reporter assay for determining selectivity; type: cell-based; conditions: 50 ng/mL human recombinant IFNγ, read-out: IFN-γ (SEAP selectivity, IC50)
Procedure: (§4) Example B-3: HEK-Blue™ IL-2 and IFNγ Reporter Assays for Determining Selectivity
(§5) HEK-Blue™ IL-2 and IFNγ reporter cells with a stably-integrated cytokine receptor and STAT5 or STAT1 express STAT-inducible secreted embryonic alkaline phosphatase (SEAP) reporter gene upon cytokine stimulation. These cells were plated in DMEM (Gibco) containing 10% heat-inactivated FBS (Gibco) and 100 U/mL PenStrep (Gibco) at 37° C. under 5% CO2 conditions for 20-22 hours. The cells were then pretreated with serially diluted test compounds for 60 min prior to stimulation with either 4 ng/mL human recombinant IL-2 (Miltenyl Biotech) or 50 ng/mL human recombinant IFNγ (InvivoGen) for 24 hours. SEAP induction was measured using the QUANTI-Blue™ Solution (InvivoGen) according to the manufacturer's instructions.

[4] = system: HEK-Blue IL-2 reporter cells (IL-2-stimulated STAT5 SEAP reporter); assay: HEK-Blue IL-2 SEAP reporter assay for determining selectivity; type: cell-based; conditions: 4 ng/mL human recombinant IL-2
Procedure: as §4, §5

JAK3 kinase domain (JH1) = target: T3, JAK3 kinase domain (JH1) (Homo sapiens, UniProt P52333); assay: HTRF-based selectivity assay, JAK3 catalytic domain; type: biochemical; conditions: recombinant catalytic domain, ATP 2.12 μM
T3 construct: recombinant purified His or GST-tagged catalytic domain for each enzyme; purchased Carna biosciences 08-046
T3 sequence (P52333 822-1111 limits assumed): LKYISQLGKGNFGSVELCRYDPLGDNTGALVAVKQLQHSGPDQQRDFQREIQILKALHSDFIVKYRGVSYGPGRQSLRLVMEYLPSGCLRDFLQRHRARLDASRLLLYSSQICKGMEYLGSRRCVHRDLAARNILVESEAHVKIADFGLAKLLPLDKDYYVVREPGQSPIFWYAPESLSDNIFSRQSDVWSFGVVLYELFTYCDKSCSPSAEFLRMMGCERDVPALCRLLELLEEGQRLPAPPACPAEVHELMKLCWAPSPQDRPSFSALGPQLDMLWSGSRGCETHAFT
Procedure: as §2, §3

SMILES	IC50 [1]	IC50 ([2]; Homo sapiens, HEK-Blue)	IC50 (TYK2 kinase domain (JH1))	IC50 (JAK1 kinase domain (JH1))	IC50 ([3]; Homo sapiens, HEK-Blue)	IC50 [4]	IC50 (JAK3 kinase domain (JH1))	IC50 [2]	IC50 [3]
[2H]C([2H])([2H])NC(=O)c1cnc(NC(=O)C2CC2)cc1Nc1cccc2c1N(C)Cc1nc(C)nn1-2 [Compound 4, 6-(cyclopropanecarboxamido)-4-((2,5-dimethyl-4,5-dihydro-[1,2,4]triazolo[1,5-a]quinoxalin-6-yl)amino)-N-(methyl-d3)nicotinamide]	< 30 nM	< 30 nM	> 1000 nM	> 1000 nM	300 to 1000 nM	> 1000 nM	> 1000 nM		
[2H]C([2H])([2H])NC(=O)c1cnc(NC(=O)[C@@H]2CC2(F)F)cc1Nc1cccc2c1N(C)Cc1nn(C)nc1-2 [Compound 70, (S)-6-(2,2-difluorocyclopropane-1-carboxamido)-4-((2,5-dimethyl-4,5-dihydro-2H-[1,2,3]triazolo[4,5-c]quinolin-6-yl)amino)-N-(methyl-d3)nicotinamide]	< 30 nM	30 to 300 nM			> 1000 nM	> 1000 nM			
[2H]C([2H])([2H])NC(=O)c1nnc(NC(=O)[C@H]2CC2(F)F)cc1Nc1nccc2c1N(C)Cc1nn(C)nc1-2 [Compound 71, (R)-6-(2,2-difluorocyclopropane-1-carboxamido)-4-((2,5-dimethyl-4,5-dihydro-2H-[1,2,3]triazolo[4,5-c][1,7]naphthyridin-6-yl)amino)-N-(methyl-d3)pyridazine-3-carboxamide]	< 30 nM					> 1000 nM		< 30 nM	30 to 300 nM
[2H]C([2H])([2H])NC(=O)c1nnc(NC(=O)C2CC2)cc1Nc1cc(F)cc2c1N(C)Cc1nc(C)nn1-2 [Compound 90, 6-(cyclopropanecarboxamido)-4-((8-fluoro-2,5-dimethyl-4,5-dihydro-[1,2,4]triazolo[1,5-a]quinoxalin-6-yl)amino)-N-(methyl-d3)pyridazine-3-carboxamide]	< 30 nM	30 to 300 nM			30 to 300 nM	> 1000 nM			
[2H]C([2H])([2H])NC(=O)c1nnc(NC(=O)C2CC2)cc1Nc1nccc2c1N(C)Cc1nn(C([2H])([2H])[2H])nc1-2 [Compound 91, 6-(cyclopropanecarboxamido)-N-(methyl-d3)-4-((5-methyl-2-(methyl-d3)-4,5-dihydro-2H-[1,2,3]triazolo[4,5-c][1,7]naphthyridin-6-yl)amino)pyridazine-3-carboxamide]	< 30 nM	< 30 nM			30 to 300 nM	> 1000 nM			
[2H]C([2H])([2H])NC(=O)c1cnc(NC(=O)C2CC2)cc1Nc1nccc2c1N(C)Cc1nn(C([2H])([2H])[2H])nc1-2 [Compound 92, 6-(cyclopropanecarboxamido)-N-(methyl-d3)-4-((5-methyl-2-(methyl-d3)-4,5-dihydro-2H-[1,2,3]triazolo[4,5-c][1,7]naphthyridin-6-yl)amino)nicotinamide]	< 30 nM	< 30 nM			30 to 300 nM	300 to 1000 nM			
[2H]C([2H])([2H])NC(=O)c1nnc(NC(=O)C2CC2)cc1Nc1nccc2c1N(C)Cc1nn(CC)nc1-2 [Compound 93, 6-(cyclopropanecarboxamido)-4-((2-ethyl-5-methyl-4,5-dihydro-2H-[1,2,3]triazolo[4,5-c][1,7]naphthyridin-6-yl)amino)-N-(methyl-d3)pyridazine-3-carboxamide]	< 30 nM	< 30 nM			300 to 1000 nM	300 to 1000 nM			
[2H]C([2H])([2H])NC(=O)c1nnc(NC(=O)C2CC2)cc1Nc1nccc2c1N(C)C([2H])([2H])c1nn(C)nc1-2 [Compound 96, 6-(cyclopropanecarboxamido)-4-((2,5-dimethyl-4,5-dihydro-2H-[1,2,3]triazolo[4,5-c][1,7]naphthyridin-6-yl-4,4-d2)amino)-N-(methyl-d3)pyridazine-3-carboxamide]	< 30 nM	< 30 nM			30 to 300 nM	300 to 1000 nM			
[2H]C([2H])([2H])NC(=O)c1cnc(NC(=O)C2CC2)cc1Nc1nccc2c1N(C)C([2H])([2H])c1nn(C)nc1-2 [Compound 97, 6-(cyclopropanecarboxamido)-4-((2,5-dimethyl-4,5-dihydro-2H-[1,2,3]triazolo[4,5-c][1,7]naphthyridin-6-yl-4,4-d2)amino)-N-(methyl-d3)nicotinamide]	< 30 nM	< 30 nM			300 to 1000 nM	> 1000 nM			
[2H]C([2H])([2H])NC(=O)c1cnc(NC(=O)NC)cc1Nc1cc(F)cc2c1N(C)Cc1nc(C)nn1-2 [Compound 101, 4-((8-fluoro-2,5-dimethyl-4,5-dihydro-[1,2,4]triazolo[1,5-a]quinoxalin-6-yl)amino)-N-(methyl-d3)-6-(3-methylureido)nicotinamide]	30 to 300 nM	300 to 1000 nM			> 1000 nM	> 1000 nM			
[2H]C([2H])([2H])NC(=O)c1cnc(Nc2cc(C)nc(C)n2)cc1Nc1cc(F)cc2c1N(C)Cc1nc(C)nn1-2 [Compound 102, 6-((2,6-dimethylpyrimidin-4-yl)amino)-4-((8-fluoro-2,5-dimethyl-4,5-dihydro-[1,2,4]triazolo[1,5-a]quinoxalin-6-yl)amino)-N-(methyl-d3)nicotinamide]	< 30 nM	< 30 nM			30 to 300 nM	300 to 1000 nM			
[2H]C([2H])([2H])NC(=O)c1nnc(NC(=O)C2CC2)cc1Nc1ccc(F)c2c1N(C)Cc1nc(C)nn1-2 [Compound 105, 6-(cyclopropanecarboxamido)-4-((9-fluoro-2,5-dimethyl-4,5-dihydro-[1,2,4]triazolo[1,5-a]quinoxalin-6-yl)amino)-N-(methyl-d3)pyridazine-3-carboxamide]	< 30 nM	30 to 300 nM			> 1000 nM	> 1000 nM			
[2H]C([2H])([2H])NC(=O)c1cnc(NC(=O)C2CC2)cc1Nc1ccc(F)c2c1N(C)Cc1nc(C)nn1-2 [Compound 107, 6-(cyclopropanecarboxamido)-4-((9-fluoro-2,5-dimethyl-4,5-dihydro-[1,2,4]triazolo[1,5-a]quinoxalin-6-yl)amino)-N-(methyl-d3)nicotinamide]	< 30 nM	30 to 300 nM			> 1000 nM	> 1000 nM			
[2H]C([2H])([2H])NC(=O)c1nnc(NC(=O)NC)cc1Nc1nccc2c1N(C)Cc1nn(C)nc1-2 [Compound 108, 4-((2,5-dimethyl-4,5-dihydro-2H-[1,2,3]triazolo[4,5-c][1,7]naphthyridin-6-yl)amino)-N-(methyl-d3)-6-(3-methylureido)pyridazine-3-carboxamide]	< 30 nM	< 30 nM			> 1000 nM	30 to 300 nM			
